The values that follow come from US4731373A, “Glycerin derivatives and inhibition of blood PAF” (Hoffman-La Roche Inc., priority 1983, dated 1988).

In this experiment the test system is blood platelet activating factor (PAF). Nature of the experiment: Inhibition of PAF-induced platelet aggregation in platelet-rich plasma (aggregometer). The experiment is classed as cell-based. The conditions noted are these: rabbit platelet-rich plasma, 37° C., stirring; test substance added 2 minutes before PAF (4 nM, sub-maximum dosage); read-out: IC50 (concentration of the test substance which reduces to a half the aggregation of the blood platelets brought about by PAF). As to the method: The aggregation of the blood platelets was measured with the aid of an aggregometer at 37° C. while stirring. […] The IC50 value (in μM) given in the following Table corresponds to that concentration of the test substance which reduces to a half the aggregation of the blood platelets brought about by PAF.
For the compound `CCCCCCCCCCCCCCCCCCOCC(COC(=O)CC[n+]1ccccc1)NC(=O)OC` (racemic) [Example 15], the IC50 came to 3000 nM.
For the compound `CCCCCCCCCCCCCCCCCCNC(=O)OCC(COC(=O)CCC[n+]1ccsc1)NC(=O)OC` (racemic) [Example 24, 1-[3-[[(RS)-2-(1-methoxyformamido)-3-(octadecylcarbamoyloxy)propoxy]carbonyl]propyl]thiazolium chloride], the IC50 was determined as 150 nM.
As for `CCCCCCCCCCCCCCCCCCNC(=O)OCC(COC(=O)CCC[n+]1ccsc1)OC` (racemic) [Example 20b, 3-[3-[[(RS)-2-methoxy-3-[(octadecylcarbamoyl)oxy]propoxy]carbonyl]propyl]thiazolium chloride], the figure is 250 nM; as for `CCCCCCCCCCCCCCCCCCNC(=O)OC[C@@H](COC(=O)CCC[n+]1ccsc1)OC(=O)OC` [Example 21e, 3-[3-[[(R)-2-[(methoxycarbonyl)oxy]-3-[(octadecylcarbamoyl)oxy]propoxy]carbonyl]propyl]thiazolium iodide], 40 nM.
With `CCCCCCCCCCCCCCCCCCNC(=O)OC[C@H](COC(=O)CCC[n+]1ccsc1)OC(=O)OC` [Example 21f, 3-[3-[[(S)-2-[(methoxycarbonyl)oxy]-3-[(octadecylcarbamoyl)oxy]propoxy]carbonyl]propyl]thiazolium iodide], the IC50 was determined as 60 nM.
For `CCCCCCCCCCCCCCCCCCOC[C@H](COC(=O)OCC[n+]1ccccc1)OC(=O)NC` [Example 3, 1-[2-[[[(R)-2-[(methylcarbamoyl)oxy]-3-(octadecyloxy)propoxy]carbonyl]oxy]ethyl]pyridinium bromide], the IC50 was 3000 nM.
Under `CCCCCCCCCCCCCCCCCCOC[C@H](COC(=O)OCC[n+]1ccccc1)OC(=O)OC` [Example 10, 1-[2-[[(R)-2-[(methoxycarbonyl)oxy]-3-(octadecyloxy)propoxy]carbonyl]oxy]ethyl]pyridinium bromide] stands 3000 nM; under `CCCCCCCCCCCCCCCCCCNC(=O)OC[C@H](COC(=O)CCC[n+]1ccccc1)OC(=O)OC` [Example 21d, 1-[3-[[(S)-2-[(methoxycarbonyl)oxy]-3-[(octadecylcarbamoyl)oxy]propoxy]carbonyl]propyl]pyridinium iodide], 200 nM.
As for `CCCCCCCCCCCCCCCCCCOC[C@H](COC(=O)OCC[n+]1ccsc1)OC(=O)OC` [Example 12, 3-[2-[[[(R)-2-[(methoxycarbonyl)oxy]-3-(octadecyloxy)propoxy]carbonyl]oxy]ethyl]thiazolium bromide], the figure is 2000 nM.
Under `CCCCCCCCCCCCCCCCCCNC(=O)OCC(COC(=O)NCC[n+]1ccccc1)OC` (racemic) [Example 7a, 1-[2-[1-[(RS)-2-methoxy-3-(octadecylcarbamoyloxy)propoxy]formamido]ethyl]pyridinium chloride] stands 2000 nM; under “1-[3-[[[(RS)-2-(1-methoxyformamido)-3-(octadecyloxy)propoxy]carbonyl]oxy]propyl]pyridinium chloride [Example 16]”, 1500 nM; under `CCCCCCCCCCCCCCCCCCOC[C@H](COC(=O)CCC[n+]1ccccc1)OC(=O)NC` [Example 1, 1-[3-[[(R)-2-[(methylcarbamoyl)oxy]-3-(octadecyloxy)propoxy]carbonyl]-propyl]pyridinium chloride], 1600 nM.
In the case of `CCCCCCCCCCCCCCCCCCNC(=O)OC[C@@H](COC(=O)CCC[n+]1ccccc1)OC(=O)OC` [Example 21b, 1-[3-[[(R)-2-[(methoxycarbonyl)oxy]-3-[(octadecylcarbamoyl)oxy]propoxy]carbonyl]propyl]pyridinium chloride], the IC50 worked out at 200 nM.
As for `CCCCCCCCCCCCCCCCCCNC(=O)OC[C@H](COC(=O)OCC[n+]1ccccc1)OC(=O)OC` [Example 11, 1-[2-[[[(R)-2-[(methoxycarbonyl)oxy]-3-(octadecylcarbamoyl)oxy]propoxy]carbonyl]oxy]ethyl]pyridinium bromide], the figure is 600 nM; as for `CCCCCCCCCCCCCCCCCCNC(=O)OCC(COC(=O)CCC[n+]1ccccc1)OC(=O)OC` (racemic) [Example 21a, 1-[3-[[(RS)-2-[(methoxycarbonyl)oxy]-3-[(octadecylcarbamoyl)oxy]propoxy]carbonyl]propyl]pyridinium chloride], 150 nM.
On to `CCCCCCCCCCCCCCCCCCNC(=O)OCC(COC(=O)OCC[n+]1ccccc1)OC` (racemic) [Example 7b, 1-[2-[[[(RS)-2-methoxy-3-[(octadecylcarbamoyl)oxy]propoxy]carbonyl]oxy]ethyl]pyridinium bromide], for which the IC50 came to 1600 nM.
Under `CCCCCCCCCCCCCCCCCCOC(=O)NCC(COC(=O)CCC[n+]1ccccc1)OC(=O)OC` (racemic) [Example 26, 1-[3-[[(RS)-2-[(methoxycarbonyl)oxy[-3-[1-(octadecyloxy)-formamido]propoxy]carbonyl]propyl]pyridinium chloride] stands 400 nM.
